The values below come from patent US20050234041A1, “Substituted 1-benzazepines and derivatives thereof” (priority 2001, published 2005).

Each structure is given as a SMILES string. Values after ≈ are worked out from the molar mass of the structure shown.

Series [1] has as its system bacteria. Nature of the series: Antibacterial activity, broth dilution (Table III). The format is cell-based. As to conditions: graded activity, organism not given. The source says:
(§1) Antibacterial activity can be determined by several standard methods well known by those skilled in the art, including disc diffusions methods, broth dilution minimal inhibitory concentration (MIC) methods, etc., including the detailed method outlined below and as defined by the National Committee of Clinical Laboratory Standards in the United States.
(§2) MIC, Broth Dilution Method
(§3) Cultures of bacteria are initially brought up from the freezer stocks onto chocolate agar plates by streaking a loop-full, then incubated for 18 hours at 35-37° C. in a 5% CO2 incubator.
(§4) Five to 10 colonies are picked from the chocolate agar plate for subculture to Brain-Heart Infusion (BHI) broth or Mueller Hinton broth or BHI containing 4% serum and incubated as described.
(§5) Evaluate the optical density of the organisms in the wells of a 96 well microtiter plate with and without the test compound. The optical density of the organisms in the presence of an active compound will be less than the optical density of the same organism untreated. The activity of the compounds is described as either negative or the lowest concentration inhibiting growth. The results are depicted in Table III, where +/− represents the least activity and ++++ represents the greatest activity. In Table IV, the results are depicted where MIC represents the lowest concentration of antibiotic that inhibits bacterial growth.
(In broth dilution the organism is exposed to a series of concentrations in liquid medium.)

For series [2], the system named is Campylobacter jejuni. Description: MIC, broth dilution method, Campylobacter jejuni. The format is cell-based. The settings on record: for MIC: Campylobacter jejuni, read-out: Antibacterial Activity (micrograms/ml) Campylobacter jejuni; for MIC / Antibacterial Activity (micrograms/ml) Campylobacter jejuni: Table IV, lowest concentration that inhibits bacterial growth, MIC.
Description: as §1, §2, §3, §4, §5

The test system of series [3] is Helicobacter pylori. Description: MIC, broth dilution method, Helicobacter pylori. The format is cell-based. The settings on record: for MIC: Helicobacter pylori, read-out: Antibacterial Activity (micrograms/ml) Helicobacter pylori; for MIC / Antibacterial Activity (micrograms/ml) Helicobacter pylori: Table IV, lowest concentration that inhibits bacterial growth, MIC.
Description: as §1, §2, §3, §4, §5

On to `CCN1C(=O)C(C(=O)O)CCc2cc(N3CCNCC3)c(OC)cc21.Cl` (racemic) [Example 15, 3(R, S)-Carboxyl-1-ethyl-8-methoxy-7-(piperazin-1-yl)-2,3,4,5-tetrahydro-1H-1-benzazepine-2-one hydrochloride], for which the melting point is 173 to 176 °C (dec.). In addition, the “Antibacterial Activity” value in series [1] is recorded as “−”. In addition, in series [2], the MIC was over 200 µg/mL. Moreover, in series [3], the MIC is over 200 µg/mL.
With `CCN1C(=O)C(C(=O)OC(C)(C)C)C=Cc2ccc(OC)cc21` (racemic) [Example 16, 3(R,S)-tert-Butoxycarbonyl-1-ethyl-8-methoxy-2,3-dihydro-1H-1-benzazepine-2-one], the melting point fell in the range of 173 to 174 °C. Also, in series [1], the “Antibacterial Activity” value is recorded as “++++”. The MIC in series [2] was over 200 µg/mL. Besides, the MIC in series [3] was over 6.25 µg/mL.
The matching figures for `CCN1C(=O)C(C(=O)O)CCc2cc(Br)c(OC)cc21` (racemic) [Example 17, 7-Bromo-3(R,S)-carboxyl-1-ethyl-8-methoxy-2,3,4,5tetrahydro-1H-1-benzazepine-2-one]: 188 to 189 °C (dec.), “+/−”, over 200 µg/mL and 200 µg/mL (≈ 584 µM).
Turning to `COc1cc2c(cc1Br)CCC(C(=O)OC(C)(C)C)C(=O)N2Cc1cccc(F)c1` (racemic) [Example 30, 7-Bromo-3(R,S)-tert-butoxycarbonyl-1-(3-fluorobenzyl)-8-methoxy-2,3,4,5-tetrahydro-1H-1-benzazepine-2-one], the melting point lay within 146 to 148 °C. Besides, the “Antibacterial Activity” value in series [1] is reported as “++++”. The MIC in series [2] was over 200 µg/mL. Also, the MIC in series [3] came out at 1.56 µg/mL (≈ 3.26 µM).
Turning to `COc1cc2c(cc1Br)CCC(C(=O)OC(C)(C)C)C(=O)N2` (racemic) [Example 32, 7-Bromo-3(R,S)-tert-butoxycarbonyl-8-methoxy-2,3,4,5-tetrahydro-1H-1-benzazepine-2-one], the melting point lay within 207 to 208 °C. The “Antibacterial Activity” value in series [1] is “++++”. The MIC in series [2] was over 200 µg/mL. Besides, in series [3], the MIC turned out to be 0.78 µg/mL (≈ 2.11 µM).
For the molecule `CCOC(=O)NC(=S)Nc1cc2c(cc1OC)NC(=O)C(C(=O)OC(C)(C)C)CC2` (racemic) [Example 176, 3(R,S)-tert-Butoxycarbonyl-7-[(ethoxycarbonylamino)thiocarbonyl)]amino-8-methoxy-2,3,4,5-tetrahydro-1H-1-benzazepine-2-one], the “Antibacterial Activity” value in series [1] was “++++”. The “Antibacterial Activity (micrograms/ml) Campylobacter jejuni” value in series [2] was over 250 micrograms/ml. In addition, in series [2] (Table V), the “MIC (μg/mL) C. jejuni” value is >250, μg/mL. In addition, the “Antibacterial Activity (micrograms/ml) Helicobacter pylori” value in series [3] is recorded as 4 micrograms/ml. Further, the “MIC (μg/mL) H. pylori” value in series [3] (Table V) stood at 4 µg/mL (≈ 9.14 µM).
Take `CCN1C(=O)CCCc2cc(N3CCN(C)CC3)c(OC)cc21` [Example 10]: the “Antibacterial Activity” value in series [1] is reported as “+/−”. Moreover, the “Antibacterial Activity (micrograms/ml) Campylobacter jejuni” value in series [2] is over 200 micrograms/ml. For the same molecule, the “Antibacterial Activity (micrograms/ml) Helicobacter pylori” value in series [3] is over 200 micrograms/ml.
Turning to `CCN1C(=O)CCCc2cc(N3CCNCC3)c(OC)cc21.Cl` [Example 22, 1-ethyl-8-methoxy-7-(piperazin-1-yl)-2,3,4,5-tetrahydro-1H-1-benzazepine-2-one hydrochloride], the “Antibacterial Activity” value in series [1] is given as “−”. Also, the MIC in series [2] and in series [3] was over 200 µg/mL in each case.
With `O=C1CCCc2ccc(O)cc2N1` [Example 33, 8-Hydroxy-2,3,4,5-tetrahydro-1H-1-benzazepine-2-one], the melting point fell in the range of 226 to 227 °C. Also, the “Antibacterial Activity” value in series [1] is given as “++++”. Also, in series [2], the MIC was over 200 µg/mL. Also, the MIC in series [3] is 0.78 µg/mL (≈ 4.4 µM).

As a reminder, the melting point is the temperature, or range, at which the solid turns liquid.
